Test results as given in PubChem BioAssay (NCI).
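Cells were grown in 96-well plates and exposed to each compound for 48 hours at five concentrations; endpoints were interpolated linearly between bracketing concentrations, or set to the highest concentration if not reached. GI50: concentration for 50% inhibition of growth. TGI denotes the concentration required for complete inhibition of growth.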

What follows are compounds tested on MDA-MB-468 breast (assay: NCI-60 cell line screen, 48 h).

| SMILES | GI50 | TGI |
| --- | --- | --- |
| COc1c2ccoc2c(/C=C/C=O)c2oc(-c3ccccc3)cc(=O)c12 | 7020 nM | 22200 nM |
| Nc1cc2nc3ccccc3sc-2cc1=O | 3740 nM | 16100 nM |
| Cn1ccnc1C(=O)/C=C/c1ccc(CC(=O)Nc2ccc(Br)cc2)cc1 | 2700 nM | 6620 nM |
| COc1cc(/C=C/c2cc(/C=C/c3ccc(O)c(OC)c3)n(C(=O)Nc3ccc(F)cc3)n2)ccc1O | 1400 nM | 5760 nM |
| CCOc1ccccc1-n1c(CN2CCN(C(=O)COc3ccc(CNCCCCCCN4C5CCCC4CC(OC(=O)Nc4cc(C)ccc4OC)C5)cc3)CC2)nc2ccccc2c1=O (configuration not stated) | 786 nM | 2420 nM |
| CNC(=O)c1ccccc1Nc1nc(Nc2ccc(N3CCOCC3)cc2OC)ncc1Cl | 1490 nM | 4320 nM |
| CNC(=O)c1cc(Oc2ccc3nc(NC(=O)Nc4ccc(Cl)c(C(F)(F)F)c4)sc3c2)ccn1 | 1360 nM | 4100 nM |
| COC(=O)Nc1nc2ccc(S(=O)c3ccccc3)cc2[nH]1 (configuration not stated) | 1940 nM | 8290 nM |
| CCCCCCCC(=O)SCC/C=C/[C@@H]1CC(=O)NCc2cccc(n2)C2=N[C@@](C)(CS2)C(=O)N[C@@H](C(C)C)C(=O)N1 | 535 nM | > 33300 nM |
| O=C(NCCNc1nccc(-c2c(-c3cccc(O)c3)nc3sccn23)n1)c1ccccc1O | 2640 nM | 21000 nM |
| NC(CSC(c1ccccc1)(c1ccccc1)c1ccc2c(c1)OCO2)C(=O)O (configuration not stated) | 254 nM | 672 nM |
| Clc1cccc(Cc2cn3cc(-c4ccccc4)nc3s2)c1Cl | 6280 nM | > 100000 nM |
| O=C1c2ccccc2C(=O)c2sc(Nc3cccc(Cl)c3)nc21 | 1770 nM | 3890 nM |
| CC(=O)[O][Hg][c]1c(N)c(C)cc(C)c1F | 1340 nM | 2740 nM |
| Cc1cc(=O)n2[nH]c(-c3ccc(C(C)(C)C)cc3)cc2n1 | 3380 nM | 40600 nM |
| Oc1ccc(Cl)cc1-c1cc(-c2ccccc2Cl)[nH]n1 | 1960 nM | 7930 nM |
| COc1cc2nc(-c3ccc(C(F)(F)F)cc3)cc(OCCCN3CCC(O)CC3)c2cc1OC | 1630 nM | 11300 nM |
| CCOC(=O)Nc1nc2ccc(OCC)cc2s1 | 2080 nM | > 100000 nM |
| O=C1/C(=C/c2ccc([N+](=O)[O-])cc2)COc2ccc(O)c(O)c21 | 1870 nM | 5550 nM |
| COc1cc2c(c(OC)c1O)C(=O)C(OC)C(c1ccc(O)c(O)c1)O2 (configuration not stated) | 464 nM | 33300 nM |
| O=C(Nc1ccc(I)cc1)c1cc([N+](=O)[O-])ccc1O | 3990 nM | 39400 nM |

| SMILES | GI50 | TGI |
| --- | --- | --- |
| Cc1nc2c(nc1C)C(=O)c1ccccc1C2=O | 1500 nM | 6040 nM |
| Cc1cnc(NC(=O)C(Cc2ccccc2)NC(=O)c2ccccc2)s1 (configuration not stated) | 15800 nM | 35700 nM |
| O=C(Nc1ccc(F)cc1F)c1cc(I)ccc1O | 2550 nM | 6880 nM |
| COc1cc(C(=O)/C=C/c2sc(Cl)nc2Cl)cc(OC)c1OC | 1830 nM | 3700 nM |
| O=C(CN1CCN(c2cc3c(cc2F)c(=O)c(C(=O)N/N=C/c2ccccc2O)cn3C2CC2)CC1)N/N=C\c1ccccc1O | 599 nM | 2960 nM |
| Cc1cc2nc(C(Cl)Cl)nc(-c3ccc(Cl)cc3)n2n1 | 299 nM | 1120 nM |
| CSc1ccccc1C#C/C=C\C#Cc1ccccc1N1CCCC1=O | 1890 nM | 13800 nM |
| CN(C)CCCNC1=C(Cl)C(=O)c2ccccc2C1=O | 1590 nM | 3330 nM |
| O=C(CCl)N1c2ccccc2Oc2ccc3ccccc3c21 | 973 nM | 2450 nM |
| COc1cc2c3c(n(CCCNC4CCCCC4)c(=O)c2cc1OC)-c1cc2c(cc1C3=O)OCO2 | 5650 nM | 15700 nM |
| Clc1ccc2c(N/N=C/c3c[nH]c4ccccc34)ccnc2c1 | 1010 nM | 2450 nM |
| COc1ccc(-c2cc(-c3ccc(Nc4nc(Nc5ccccc5)nc(Nc5ccc(Cl)cc5)n4)cc3)nc(N)c2C#N)cc1 | 1150 nM | 3050 nM |
| COc1ccc2c(c1)C(=O)/C(=C/c1ccc(OCC(=O)Nc3nccs3)cc1)O2 | 18.1 nM | 39.2 nM |
| Fc1ccc(Nc2ncnc3ccc(-c4cnc5[nH]ccc5c4)cc23)cc1Cl | 115 nM | 575 nM |
| Clc1ccc2oc3c(NCCCN4CCOCC4)c4ccccc4nc3c2c1 | 1490 nM | 3500 nM |
| O=c1n(CC2CO2)c(=O)n(CC2CO2)n1CC1CO1 (configuration not stated) | 2290 nM | 16800 nM |
| NC1CCC(Nc2nc(NCc3ccc(-c4ccco4)nc3)c3ncn(C4CCCC4)c3n2)CC1 (configuration not stated) | 8.41 nM | 34.9 nM |
| C[C@@H](CS(C)(=O)=O)Nc1ncc2cc(Oc3ccc(F)cc3F)c(=O)n(C)c2n1 | > 25000 nM | > 25000 nM |
| C=C(CNCCO)[C@@H]1CC[C@]2(CO)CC[C@]3(C)[C@H](CC[C@@H]4[C@@]5(C)CCC(N)C(C)(C)[C@@H]5CC[C@]43C)[C@@H]12 (some centres not stated) | 1670 nM | 3530 nM |
| CC(C)c1ccc(C(C)C(=O)N(CC2=C(C(C)c3ccccn3)c3ccccc3C2)C(C)C)cc1 (configuration not stated) | 2780 nM | 41700 nM |
